Test results taken from US20200199102A1, “COMPOUNDS THAT PARTICIPATE IN COOPERATIVE BINDING AND USES THEREOF” (Revolution Medicines, Inc., priority 2017, published 2020).
Where a SMILES comes first, the peptide text is derived from it. [ ]: non-standard residue; d: D form. MeBmt = C/C=C/C[C@@H](C)[C@@H](O)[C@H](NC)C(=O)O; NMeF = CN[C@@H](Cc1ccccc1)C(=O)O; NMeI = CC[C@H](C)[C@H](NC)C(=O)O; NMeT = CN[C@H](C(=O)O)[C@@H](C)O; NMeL = CN[C@@H](CC(C)C)C(=O)O; dNMeV = CN[C@@H](C(=O)O)C(C)C; NMeNle = CCCC[C@H](NC)C(=O)O; Tle = CC(C)(C)[C@H](N)C(=O)O; NMeV = CN[C@H](C(=O)O)C(C)C; NMeA = CN[C@@H](C)C(=O)O; Abu = CC[C@H](N)C(=O)O; Sar = CNCC(=O)O

Target: T1, Cyclophilin A (Homo sapiens, UniProt P62937)
T1 construct: made in house
T1 sequence (P62937 whole entry, species assumed): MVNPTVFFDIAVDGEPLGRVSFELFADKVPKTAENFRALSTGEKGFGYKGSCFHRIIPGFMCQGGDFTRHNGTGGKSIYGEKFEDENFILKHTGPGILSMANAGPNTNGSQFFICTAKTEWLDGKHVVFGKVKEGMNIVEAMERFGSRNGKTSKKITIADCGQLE
Experiment: AlphaLISA inhibition of binding of biotinylated Cyclosporin A to FLAG tagged Cyclophilin A
Conditions: for % signal: AlphaLISA signal; for % signal / % inhibition of CsA binding to Cyclophilin A: test concentration not given; for IC50: read-out: IC50 value of CsA binding to Cyclophilin A
Excerpt: The binding of compounds of the invention to Cyclophilin A can be determined using the following protocol.
This protocol utilizes Perkin Elmers AlphaLISA technology platform to detect cyclosporine analogues by measuring the inhibition of binding of biotinylated Cyclosporin A to FLAG tagged Cyclophilin A.
10×TBST Buffer (Boston BioProducts IBB-181), Biotinylated Cyclosporin A (in-house), FLAG tagged Cyclophilin A (in-house); anti-FLAG Donor beads (PerkinElmer AS103) and Streptavidin Acceptor beads (PerkinElmer AL125); Compounds in DMSO (in-house), Cyclosporin A (LC Labs Cat #C-6000).
Add 20 uL of 6 nM Biotinylated CsA working stock to each well of the 96-well plate. Add 1 uL of test compound (100% DMSO) to each well of the plate using the Janus MTD head and P20 tips (except control wells). Add 1 uL of DMSO to negative control wells and 1 uL of 500 uM Cyclosporin A solution to positive control wells. In the dark, add 20 uL of combined Donor/Acceptor beads to each well. Incubate in the dark for 30 minutes at room temperature. In the dark, add 10 uL of 25 nM Flag tagged CypA working stock to each well. Incubate in the dark for 60 minutes at room temperature. Protect plate from light until reading on Biotek Synergy2 Plate Reader; Alphalisa 96-well protocol (680 excitation/615 emission).

| Structure (SMILES) | % signal [%] | IC50 [µM] | % inhibition of CsA binding to Cyclophilin A [%] |
| --- | --- | --- | --- |
| C/C=C/C[C@@H](C)[C@@H](O)[C@H]1C(=O)N[C@@H](CC)C(=O)N(C)CC(=O)N(C)CC(=O)N[C@@H](CC(C)C)C(=O)N(C)[C@@H](C)C(=O)N[C@@H](C)C(=O)N[C@H](C)C(=O)N(C)[C@@H](CC(C)C)C(=O)N(C)[C@@H](CC(C)C)C(=O)N(C)[C@@H](C(C)C)C(=O)N1C [Compound C13] (cyclo([MeBmt][Abu][Sar][Sar]L[NMeA]A[dA][NMeL][NMeL][NMeV])) | 2.70 | < 2 | 97.30 |
| C/C=C/C[C@@H](C)[C@@H](O)[C@H]1C(=O)N[C@@H](CC)C(=O)N(C)CC(=O)N(C)[C@@H](Cc2ccccc2)C(=O)N[C@@H](C(C)C)C(=O)N(C)CC(=O)N[C@@H](C)C(=O)N[C@H](C)C(=O)N(C)[C@@H](CC(C)C)C(=O)N(C)[C@@H](CC(C)C)C(=O)N(C)[C@@H](C(C)C)C(=O)N1C [Compound C27] (cyclo([MeBmt][Abu][Sar][NMeF]V[Sar]A[dA][NMeL][NMeL][NMeV])) | 5.27 | < 2 | 94.73 |
| C/C=C/C[C@@H](C)[C@@H](O)[C@H]1C(=O)N[C@@H](CC)C(=O)N(C)CC(=O)N(C)[C@@H]([C@@H](C)O)C(=O)N[C@@H](C(C)C)C(=O)N(C)[C@@H](CC(C)C)C(=O)N[C@@H](CC)C(=O)N[C@H](C)C(=O)N(C)[C@@H](CC(C)C)C(=O)N(C)[C@@H](CC(C)C)C(=O)N(C)[C@@H](C(C)C)C(=O)N1C [Compound C99] (cyclo([Abu][Sar][NMeT]V[NMeL][Abu][dA][NMeL][NMeL][NMeV][MeBmt])) | 2.59 | < 2 | 97.41 |
| C/C=C/C[C@@H](C)[C@@H](O)[C@H]1C(=O)N[C@@H](CC)C(=O)N(C)CC(=O)N(C)[C@@H]([C@@H](C)CC)C(=O)N[C@@H](C(C)C)C(=O)N(C)[C@@H](C)C(=O)N[C@@H](CC(C)C)C(=O)N[C@H](C)C(=O)N(C)[C@@H](CC(C)C)C(=O)N(C)[C@@H](CC(C)C)C(=O)N(C)[C@@H](C(C)C)C(=O)N1C [Compound C81] (cyclo([MeBmt][Abu][Sar][NMeI]V[NMeA]L[dA][NMeL][NMeL][NMeV])) | 0.76 | < 2 | 99.24 |
| C/C=C/C[C@@H](C)[C@@H](O)[C@H]1C(=O)N[C@@H](CC)C(=O)N(C)CC(=O)N(C)[C@@H](C(C)C)C(=O)N[C@@H](C(C)(C)C)C(=O)N(C)[C@@H](C)C(=O)N[C@@H](CC(C)C)C(=O)N[C@H](C)C(=O)N(C)[C@@H](CC(C)C)C(=O)N(C)[C@@H](CC(C)C)C(=O)N(C)[C@@H](C(C)C)C(=O)N1C [Compound C77] (cyclo([MeBmt][Abu][Sar][NMeV][Tle][NMeA]L[dA][NMeL][NMeL][NMeV])) | 0.44 | < 2 |  |
| C/C=C/C[C@@H](C)[C@@H](O)[C@H]1C(=O)N[C@@H](CC)C(=O)N(C)CC(=O)N(C)[C@@H](C)C(=O)N[C@@H](C(C)C)C(=O)N(C)[C@@H](C)C(=O)N[C@@H](CC(C)C)C(=O)N[C@H](C)C(=O)N(C)[C@@H](CC(C)C)C(=O)N(C)[C@@H](CC(C)C)C(=O)N(C)[C@@H](C(C)C)C(=O)N1C [Compound C82] (cyclo([MeBmt][Abu][Sar][NMeA]V[NMeA]L[dA][NMeL][NMeL][NMeV])) | 0.77 | < 2 | 99.23 |
| C/C=C/C[C@@H](C)[C@@H](O)[C@H]1C(=O)N[C@@H](CC)C(=O)N(C)CC(=O)N(C)[C@H](C(C)C)C(=O)N[C@@H](C(C)C)C(=O)N(C)[C@@H](C)C(=O)N[C@@H](CC(C)C)C(=O)N[C@H](C)C(=O)N(C)[C@@H](CC(C)C)C(=O)N(C)[C@@H](CC(C)C)C(=O)N(C)[C@@H](C(C)C)C(=O)N1C [Compound C91] (cyclo([Abu][Sar][dNMeV]V[NMeA]L[dA][NMeL][NMeL][NMeV][MeBmt])) | 5.17 | < 2 | 94.83 |
| C/C=C/C[C@@H](C)[C@@H](O)[C@H]1C(=O)N[C@@H](CC)C(=O)N(C)CC(=O)N(C)[C@@H](CCCC)C(=O)N[C@@H](C(C)C)C(=O)N(C)[C@@H](C)C(=O)N[C@@H](CC(C)C)C(=O)N[C@H](C)C(=O)N(C)[C@@H](CC(C)C)C(=O)N(C)[C@@H](CC(C)C)C(=O)N(C)[C@@H](C(C)C)C(=O)N1C [Compound C92] (cyclo([Abu][Sar][NMeNle]V[NMeA]L[dA][NMeL][NMeL][NMeV][MeBmt])) | 9.00 | < 2 | 91.00 |
| C/C=C/C[C@@H](C)[C@@H](O)[C@H]1C(=O)N[C@@H](CC)C(=O)N(C)CC(=O)N(C)[C@@H](Cc2ccccc2)C(=O)N[C@@H](C(C)C)C(=O)N(C)[C@@H](CC(C)C)C(=O)N[C@@H](CC(C)C)C(=O)N[C@H](C)C(=O)N(C)[C@@H](CC(C)C)C(=O)N(C)[C@@H](CC(C)C)C(=O)N(C)[C@@H](C(C)C)C(=O)N1C [Compound C48] (cyclo([MeBmt][Abu][Sar][NMeF]V[NMeL]L[dA][NMeL][NMeL][NMeV])) | 15.72 | < 2 | 84.28 |
| C/C=C/C[C@@H](C)[C@@H](O)[C@H]1C(=O)N[C@@H](CC)C(=O)N(C)CC(=O)N(C)[C@@H](C)C(=O)N[C@@H](C)C(=O)N(C)CC(=O)N[C@@H](C)C(=O)N[C@H](C)C(=O)N(C)[C@@H](CC(C)C)C(=O)N(C)[C@@H](CC(C)C)C(=O)N(C)[C@@H](C(C)C)C(=O)N1C [Compound C18] (cyclo([MeBmt][Abu][Sar][NMeA]A[Sar]A[dA][NMeL][NMeL][NMeV])) | 2.12 | < 2 |  |
| C/C=C/C[C@@H](C)[C@@H](O)[C@H]1C(=O)N[C@@H](CC)C(=O)N(C)CC(=O)N(C)[C@@H](CC(C)C)C(=O)N[C@@H](C(C)C)C(=O)N(C)CC(=O)N[C@@H](C)C(=O)N[C@H](C)C(=O)N(C)[C@@H](CC(C)C)C(=O)N(C)[C@@H](CC(C)C)C(=O)N(C)[C@@H](C(C)C)C(=O)N1C [Compound C30] | 0.06 | < 2 | 99.94 |
| C/C=C/C[C@@H](C)[C@@H](O)[C@H]1C(=O)N[C@@H](CC)C(=O)N(C)CC(=O)N(C)CC(=O)N[C@@H](C(C)C)C(=O)N(C)[C@@H](CC(C)C)C(=O)N[C@@H](CC(C)C)C(=O)N[C@H](C)C(=O)N(C)[C@@H](CC(C)C)C(=O)N(C)[C@@H](CC(C)C)C(=O)N(C)[C@@H](C(C)C)C(=O)N1C [Compound C49] (cyclo([MeBmt][Abu][Sar][Sar]V[NMeL]L[dA][NMeL][NMeL][NMeV])) | 19.41 | < 2 | 80.59 |
| C/C=C/C[C@@H](C)[C@@H](O)[C@H]1C(=O)N[C@@H](CC)C(=O)N(C)CC(=O)N(C)[C@@H](C)C(=O)N[C@@H](C(C)C)C(=O)N(C)[C@@H](CC(C)C)C(=O)N[C@@H](CC)C(=O)N[C@H](C)C(=O)N(C)[C@@H](CC(C)C)C(=O)N(C)[C@@H](CC(C)C)C(=O)N(C)[C@@H](C(C)C)C(=O)N1C [Compound C94] (cyclo([Abu][Sar][NMeA]V[NMeL][Abu][dA][NMeL][NMeL][NMeV][MeBmt])) | 3.71 | < 2 | 96.29 |
